Consider 39 molecules from ChEMBL document CHEMBL6074638, “Stability studies of β-Amino- and β-Hydroxy difluoromethyl ketones in rat serum and rat liver microsomes” (Bioorg Med Chem Lett, 2024).

Data set [1] is described as follows: Metabolic stability in rat liver microsomes assessed as parent compound remaining measured after 30 mins in presence of NADPH by LC-MS/MS analysis. It counts as ADME, Microsome. Conditions: read-out: Stability.
A short description of data set [2]: Stability in rat serum assessed as parent compound remaining measured after 30 mins by LC-MS analysis. It counts as ADME, cell-free. Conditions: read-out: Stability.

For `CC(=O)c1ccc(C(O)C(F)(F)C(=O)C23CC4CC(CC(C4)C2)C3)cc1` (configuration not stated), the results for the remaining at 0.5 h in data set [1] and in data set [2] were 70.5% and 73%, respectively.
In the same order, the values of `COc1ccc(C(O)C(F)(F)C(=O)c2ccc3ccccc3c2)cc1` (configuration not stated) are under 1% and 88.5%.
For `O=C(c1ccc(Cl)cc1)C(F)(F)C(NCc1ccccc1)c1ccccc1` (configuration not stated), in that order: 2% and 87%.
Regarding `CC(C)(C)OC(=O)NC(c1ccccc1)C(F)(F)C(=O)c1ccc2ccccc2c1` (configuration not stated), the values for the remaining at 0.5 h in data set [1] and in data set [2] were 4% and 71.5%, respectively.
For `CC(C)(C)OC(=O)NC(c1ccccc1)C(F)(F)C(=O)c1ccc2c(c1)OCO2` (configuration not stated), in that order: 2.5% and 100%.
As for `O=C(c1ccc2ccccc2c1)C(F)(F)C(NCc1ccccc1)c1ccccc1` (configuration not stated), the remaining at 0.5 h in data set [1] worked out at 3.5%; in data set [2], 85%.
Take `O=C(C12CC3CC(CC(C3)C1)C2)C(F)(F)C(O)c1ccc(Cl)cc1` (configuration not stated): the remaining at 0.5 h in data set [1] was under 1%; in data set [2], 48.5%.
Regarding `C/C=C/C=C/C(NCc1ccccc1)C(F)(F)C(=O)c1ccc2ccccc2c1` (configuration not stated), the values for the remaining at 0.5 h in data set [1] and in data set [2] were 2% and 100%, respectively.
In the case of `CC(C)(C)OC(=O)NC(c1cccc(Br)c1)C(F)(F)C(=O)c1ccc(Cl)cc1` (configuration not stated), the remaining at 0.5 h in data set [1] was under 1%; in data set [2], 100%.
In the same order, the values of `CC(C)(C)OC(=O)NC(c1ccc(Cl)cc1)C(F)(F)C(=O)c1ccc(Cl)cc1` (configuration not stated) are 3% and 83%.
In the same order, the values of `O=C(c1cccc(SCc2ccccc2)c1)C(F)(F)C(NCc1ccccc1)c1ccccc1` (configuration not stated) are 12.5% and 97%.
For `O=C(c1ccc2ccccc2c1)C(F)(F)C(O)c1cccc(F)c1` (configuration not stated), in that order: under 1% and 82%.
Take `CC(C)(C)OC(=O)NC(c1cccc(F)c1)C(F)(F)C(=O)c1ccc(Cl)cc1` (configuration not stated): the remaining at 0.5 h in data set [1] is under 1%.
Consider `CCC/C=C/C(O)C(F)(F)C(=O)C12CC3CC(CC(C3)C1)C2` (configuration not stated), for which the remaining at 0.5 h in data set [1] is 63%; in data set [2] it was under 1%.
As for `O=C(c1ccc2ccccc2c1)C(F)(F)CO`, the results for the remaining at 0.5 h in data set [1] and in data set [2] were 41.5% and 100%, respectively.
Consider `COc1ccc(C(Nc2ccc(F)cc2)C(F)(F)C(=O)c2ccc3ccccc3c2)cc1` (configuration not stated), for which the remaining at 0.5 h came out at 2% in data set [1] and 76% in data set [2].
For `O=C(c1ccc2c(c1)OCO2)C(F)(F)C(O)c1ccccc1` (configuration not stated), in that order: 53% and 83.5%.
For `O=C(c1ccc2ccccc2c1)C(F)(F)C(O)/C=C/c1ccccc1` (configuration not stated), in that order: 75.5% and 90.5%.
For `O=C(c1ccc2ccccc2c1)C(F)(F)C(Nc1ccccc1)c1ccccc1` (configuration not stated), in that order: 1% and 85%.
`CC(C)(C)NC(c1ccccc1)C(F)(F)C(=O)c1ccc2ccccc2c1` (configuration not stated): the remaining at 0.5 h in data set [1] is under 1%; in data set [2], 98%.
In the same order, the values of `COc1ccc(NC(c2ccc(OC)cc2)C(F)(F)C(=O)c2ccc3ccccc3c2)cc1` (configuration not stated) are 7.5% and 100%.
Turning to `O=C(c1ccc2ccccc2c1)C(F)(F)C(O)c1ccc(F)cc1` (configuration not stated), the remaining at 0.5 h is under 1% in data set [1] and 96.5% in data set [2].
On to `O=C(c1ccc(Cl)cc1)C(F)(F)C(O)c1ccccc1` (configuration not stated), for which the figures for the remaining at 0.5 h in data set [1] and in data set [2] were 98.5% and 97%, respectively.
In the same order, the values of `COc1ccc(C(NC(=O)OC(C)(C)C)C(F)(F)C(=O)c2ccc3ccccc3c2)cc1` (configuration not stated) are 10% and 61%.
In the same order, the values of `COc1ccc(C(O)C(F)(F)C(=O)C23CC4CC(CC(C4)C2)C3)cc1` (configuration not stated) are 85.5% and 66.5%.
With `O=C(c1ccc2c(c1)OCO2)C(F)(F)C(O)c1ccc(Cl)cc1` (configuration not stated), the results for the remaining at 0.5 h in data set [1] and in data set [2] were 11.5% and 85%, respectively.
For `CC(=O)c1ccc(C(O)C(F)(F)C(=O)c2ccc3ccccc3c2)cc1` (configuration not stated), in that order: under 1% and 86.5%.
In the same order, the values of `CC(C)(C)OC(=O)NC(c1ccc(Cl)cc1)C(F)(F)C(=O)c1ccc2ccccc2c1` (configuration not stated) are 7.5% and under 1%.
For `CC(C)(C)OC(=O)NC(c1ccc(F)cc1)C(F)(F)C(=O)c1ccc(Cl)cc1` (configuration not stated), the remaining at 0.5 h in data set [1] is under 1%; in data set [2], 80.5%.
In the same order, the values of `COc1ccc(C(Nc2ccccc2)C(F)(F)C(=O)c2ccc3ccccc3c2)cc1` (configuration not stated) are under 1% and 100%.
In the same order, the values of `CC(C)(C)OC(=O)NC(c1ccc(F)cc1)C(F)(F)C(=O)c1ccc2ccccc2c1` (configuration not stated) are under 1% and 100%.
For `CC(C)(C)OC(=O)NC(c1ccc(Cl)cc1)C(F)(F)C(=O)c1ccc2c(c1)OCO2` (configuration not stated), in that order: 83% and 89%.
As to `CC(C)(C)OC(=O)NC(c1cccc(Br)c1)C(F)(F)C(=O)c1ccc2ccccc2c1` (configuration not stated), the results for the remaining at 0.5 h in data set [1] and in data set [2] were 55% and 35.5%, respectively.
For `Cc1ccc(NC(c2ccc(F)cc2)C(F)(F)C(=O)c2ccc3ccccc3c2)cc1C` (configuration not stated), in that order: 2% and 74%.
In the same order, the values of `COc1cc2c(cc1OC)C(C(F)(F)C(=O)c1ccc(C(F)(F)F)cc1)NCC2` (configuration not stated) are 7.5% and 97.5%.
As to `O=C(C12CC3CC(CC(C3)C1)C2)C(F)(F)C(NCc1ccccc1)c1ccccc1` (configuration not stated), the remaining at 0.5 h was under 1% in data set [1] and 100% in data set [2].
In the same order, the values of `CC(C)(C)OC(=O)NC(c1ccccc1)C(F)(F)C(=O)c1ccc(Cl)cc1` (configuration not stated) are under 1% and 99%.
In the same order, the values of `CC(C)(C)OC(=O)NC(c1ccc(C(F)(F)F)cc1)C(F)(F)C(=O)c1ccc2ccccc2c1` (configuration not stated) are 27% and 48.5%.
In the case of `CC(C)(C)OC(=O)NC(c1cccc(F)c1)C(F)(F)C(=O)c1ccc2ccccc2c1` (configuration not stated), the remaining at 0.5 h in data set [1] is 5%; in data set [2], 98%.
